Paper PMC5342071, “A first generation inhibitor of human Greatwall kinase, enabled by structural and functional characterisation of a minimal kinase domain construct” (Oncotarget, 2016)

Biological target: T1, hGWL-KinDom (Homo sapiens, UniProt Q96GX5)
T1 construct: that encoded amino acids (aa) 1-194 + ‘RTFC’ + 740-879 of hGWL; GST (rhinovirus 3C-protease cleavable) (N, cleaved yes); made in house; host or cells: E. coli Rosetta2(DE3)
Test: Thermal shift assay
Type: binding
Conditions: read-out: temperature midpoint shift (ΔTm)
Procedure: Assays were performed using a modified version of the protocol previously described in [41].
The protein crystallised in spacegroup P212121, with two molecules comprising the asymmetric unit. For one molecule (chain A), amino acids 30-72, 86-177 and 740-854 are readily discernible in electron density maps, whilst for the other (chain B) amino acids 30-72, 86-177 and 740-854 are readily discernible.
For thermal denaturation, samples containing protein at 1.5 µM and 5 x SYPRO Orange (diluted from a 5000 x stock supplied in DMSO; Sigma-Aldrich, Gillingham, UK) were prepared in sample buffer: 20 mM HEPES.NaOH pH 7.5, 300 mM NaCl, 0.5 mM TCEP. Denaturation curves were monitored in 96-well PCR plates using a Roche LightCycler 480 II, with 465 and 580 nm filters for excitation and emission wavelengths, respectively. The program was as follows: 1 min at 20°C, followed by a continuous increment of 0.03°C/s to a final temperature of 85°C. Temperature midpoints (Tm) for each folded to unfolded transition were determined by non-linear regression fitting of a modified Boltzmann model to normalized data in Prism 6.0 (version 6.0h, GraphPad Software, La Jolla, CA USA). […]
After stopping the above non-radioactive kinase assay with 1 volume of Kinase-Glo Max reagent the mixture was allowed to incubate for a further 15 min. […] As this assay measures ATP, activity or ATP turnover was measured as the -ΔRLU. […]

T1 sequence (Q96GX5 with tags, fused parts or gaps limits assumed): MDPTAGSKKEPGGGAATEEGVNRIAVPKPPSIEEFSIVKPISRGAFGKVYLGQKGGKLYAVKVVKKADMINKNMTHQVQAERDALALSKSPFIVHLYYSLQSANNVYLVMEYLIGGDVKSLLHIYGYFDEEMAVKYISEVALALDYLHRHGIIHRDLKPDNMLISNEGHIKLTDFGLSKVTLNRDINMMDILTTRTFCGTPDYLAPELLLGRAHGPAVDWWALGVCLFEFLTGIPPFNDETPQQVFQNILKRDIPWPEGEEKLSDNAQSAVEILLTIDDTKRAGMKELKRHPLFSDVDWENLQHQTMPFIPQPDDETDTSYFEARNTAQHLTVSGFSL

For `CN[C@@H]1C[C@H]2O[C@@](C)([C@@H]1OC)n1c3ccccc3c3c4c(c5c6ccccc6n2c5c31)C(=O)NC4` [STU, staurosporine], which ΔTm at 10 µM is on record?
The ΔTm at 10 µM was 8.2 °C.
